One series relates to Candida albicans. Nature of the series: Antimicrobial testing by agar dilution, Candida albicans. Format: cell-based. The settings on record: after 10, 20, 40 and 60 min at all dilutions 1:100, 1:200, 1:400, 1:800. As to the method: (§1) The antimicrobial properties of the 9-(4-Nitrobenzylidene)-4-(4-nitrophenyl)-3-cyano-2-methoxy-6,7,8,9-tetrahydro-5H-cyclohepta[b]pyridine was studied by the method of agar dilution. Test solutions of each compound was prepared in concentration of 1% using dimethylformamide as a solvent then they are diluted in physiological solution to obtain the final experimental dilutions 1:100, 1:200, 1:400, 1:800. The effect of these substances are compared with furacillin in a controllable study. The testing microbes used were gram positive bacteria Staphylococcus aureus, gram negative bacteria Pseudomonas aeruginosa, Escherichia coli and Candida albicans fungi were taken.
(§2) The experiments used for this survey were meat-pentonlu agar (EPA) for cultivation of bacteria and Saburo environment for fungi. Each experiment used 1 mL of test solution on each plate 500 min. Add 2 drops of emulsified with microbes feel. All experimental samples were taken from the agar after 10, 20, 40, 60 minutes in the environment on the basis of Patrk planted. Bacteria were cultivated at a temperature of 37° C. for 1 day and the mushroom was kept in a thermostat for […] at a temperature of 28° C. Then the results were checked.

A further series relates to Pseudomonas aeruginosa. The experiment in a line: Antimicrobial testing by agar dilution, Pseudomonas aeruginosa. The format is cell-based. Particulars: after 10, 20, 40 and 60 min at all dilutions 1:100, 1:200, 1:400, 1:800. The protocol: as §1, §2
A further series relates to Escherichia coli. The experiment in a line: Antimicrobial testing by agar dilution, Escherichia coli. The format is cell-based. Particulars: after 10, 20, 40 and 60 min at all dilutions 1:100, 1:200, 1:400, 1:800. The protocol:
as §1, §2

In the next series the test system is Staphylococcus aureus. Nature of the series: Antimicrobial testing by agar dilution, Staphylococcus aureus. The format is cell-based. The settings on record: after 10, 20, 40 and 60 min at all dilutions 1:100, 1:200, 1:400, 1:800. As to the method: as §1, §2

This is an account of results in patent US11932605B1, “9-(4-nitrobenzylidene)-4-(4-nitrophenyl)-3-cyano-2-methoxy-6,7,8,9-tetrahydro-5h-cyclohepta[b]pyridine as an antimicrobial compound” (KING FAISAL UNIVERSITY, priority 2023, dated 2024).

Turning to `COc1nc2c(c(-c3ccc([N+](=O)[O-])cc3)c1C#N)CCCC/C2=C\c1ccc([N+](=O)[O-])cc1` [9-(4-nitrobenzylidene)-4-(4-nitrophenyl)-3-cyano-2-methoxy-6,7,8,9-tetrahydro-5H-cyclohepta[b]pyridine], the melting point was in the range of 133 to 135 °C. Besides, the inhibition activity result in the series on Candida albicans is reported as “most higher inhibition activity”. Also, the inhibition activity entry in the series with Pseudomonas aeruginosa is listed as “most higher inhibition activity”. Besides, in the series on Escherichia coli, the inhibition activity result is recorded as “most higher inhibition activity”. Besides, in the series with Staphylococcus aureus, the inhibition activity entry is “most higher inhibition activity”.
